Results: US7659277B2, “Ubiquitin ligase inhibitors and methods related thereto” (Proteologies, Ltd., priority 2003, dated 2010)
Read-outs that look alike come from different tables or passages of the source.

Tests used:
POSH = target: T1, POSH (Homo sapiens, UniProt Q7Z6J0); experiment: IC50 assay procedure: GST-POSH auto-ubiquitination, homogeneous time-resolved fluorescence (Ub-cryptate / anti-GST XL665); type: biochemical; conditions: ubiquitin ligase activity of POSH; GST-POSH 33 nM, 30 min preincubation
T1 construct: GST-POSH lot NB81/p.118 3.6 mg/ml; fused on or other part: GST tag, used for detection with anti-GST XL665
T1 sequence (Q7Z6J0 1-269 limits assumed): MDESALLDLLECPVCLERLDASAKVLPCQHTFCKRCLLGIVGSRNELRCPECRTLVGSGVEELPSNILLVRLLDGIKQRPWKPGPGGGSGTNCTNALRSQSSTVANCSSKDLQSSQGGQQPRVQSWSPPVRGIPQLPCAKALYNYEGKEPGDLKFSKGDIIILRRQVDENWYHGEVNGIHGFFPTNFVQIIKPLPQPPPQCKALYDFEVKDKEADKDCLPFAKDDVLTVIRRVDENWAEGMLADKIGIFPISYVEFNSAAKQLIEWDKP
Excerpt: In certain preferred embodiments, agents that inhibit (or promote) the ubiquitin ligase activity of a ubiquitin ligase, such as POSH, may be identified using a homogenous time resolved fluorescence assay. Such an assay may employ a GST fused to the RING subunit of a ubiquitin ligase (e.g. POSH). Two flurophore-conjugated detection reagents are also used: anti-GSTXL665 and europium cryptate labeled ubiqutin. The ubiqutination of the ubiquitin ligase by ubiqutin cryptate and binding of the anti-GST tagged XL665 brings the fluorophores into close proximity allowing FRET reaction to occur. Accordingly, FRET serves as a measurement of ubiquitination of the ubiquitin ligase. An enzymatic system may be set up to provide activated ubiquitin, e.g., by providing ubiquitin, an E1 and an E2. Compounds that will not allow the FRET reaction are considered to be inhibitors.
Step 3: establish IC 50 value measurements.
Experimental Protocols: 1. HTS Screening Assay Procedure • Microplates 10109D to 10114D compounds at 1 mM. • (Controls in column 1). • All compounds were perchase from ChemBridge corporation: ChemBridge corporation 16981 Via Tazon, Suite G San Diego, Calif. 92127 a. Microplates Labeling • Put labels to 6 PS U-bottom clear microplate. • Put labels to 18 black microplates (triplicats). b. Microplates Preparation • Put 100 μl GST-POSH at 33 nM in wells of the clear PS U-bottom microplates (exept wells A1-D1). • Negative control: place 100 μl dH2O in wells A1-D1. • (Positive control: place 100 μl GST-POSH at 33 nM in wells E1-H1). • Put 8 μl enzymes solution ×4 to black microplates (column 1 to 11). c. Incubation of E3 with Compounds • Transfer 5 μl of compounds (at 1 mM) to the microplates containing 100 μl GST-POSH. • Add 5 μl of DMSO to controls column 1. • Incubation 30 minutes at RT. d. Enzymatic (Ubiquitination) and Final Steps • Distribution of (triplicate) 3×23 μl incubated compounds into 3 black microplates containing enzymatic solution (on splitting apparatus). • Incubation 30 minutes at 37° C. • Addition of 8 μl EDTA 0.5 M. • Incubation 15 (at least) minutes at RT. • Addition of 30 μl GST XL 665 in reconstitution buffer. • Incubation 45 (at least) minutes at RT. • Reading fluorescence. • Record results in computer. • Put sealing foil back on original and diluted microplates and keep at −70° C. • Always the plates must be closed with lids during each step. 2. […] Microplates Labeling • Put labels to 4 clear PP clear microplate (18.2 μM, 9.1 uM, 1.82 uM, 910 nM,). • Put labels to 5 clear PS U-bottom clear microplate 4.44 μM, 909, 444, 91 and 44 nM) • Put labels to 15 black microplates (triplicates). f. Original Microplate Dilutions • Put DMSO 40 μl to (18.2 μM, 1.82 uM plates) and 20 ul to (9.1 uM, 910 nM plates. • Mix by pipetation the original microplate (3× up and down 45 μl). • Transfer 10 μl of compounds from the original microplate (at 91 μM) to the next microplate (=18.2 μM) on splitting apparatus. • Mix by pipetation the 18.2 uM microplate (3× up and down 45 μl). • Transfer 20 μl of compounds from the 18.2 uM microplate to the next microplate (=9.1 μM) on splitting apparatus. • Mix by pipetation the 9.1 uM microplate (3× up and down 45 μl). • Transfer 10 μl of compounds from the 9.1 uM microplate to the next microplate (=1.82 μM) on splitting apparatus. • Mix by pipetation the 1.82 uM microplate (3× up and down 45 μl). • Transfer 20 μl of compounds from the 1.82 uM microplate to the next microplate (=910 nM) on splitting apparatus • Mix by pipetation. g. Microplates Preparation • Put 123 μl GST-POSH at 33 nM in wells of the 5 clear PS U-bottom clear microplates. • Positive control: place 123 μl GST-POSH at 33 nM in well A12-h12 13 μl DMSO. • Negative control: place 123 μl dH2O in well B1 and 13 μl DMSO. • Put 8 μl enzymes solution ×4 to 15 black microplates. • Controls: put 8 μl enzymes solution ×4 to wells A1 to F1. h. […]

HIV-1 = experiment: HIV maturation (budding) in virus-like particle assay, HIV-1 p24 antigen ELISA; type: cell-based; conditions: Human immunodeficiency virus 1, read-out: Budding (3 μM)
Excerpt: Compounds were further assessed for effects on maturation of HIV particles in a virus-like particle assay.

Hmdm2 = Hmdm2 (Homo sapiens, UniProt Q00987); experiment: Selectivity (% A in 1 μM), ubiquitin ligase activity of Hmdm2; type: biochemical; conditions: read-out: Selectivity (% A* in 1 μM) Hmdm2
Hmdm2, sequence (Q00987 whole entry): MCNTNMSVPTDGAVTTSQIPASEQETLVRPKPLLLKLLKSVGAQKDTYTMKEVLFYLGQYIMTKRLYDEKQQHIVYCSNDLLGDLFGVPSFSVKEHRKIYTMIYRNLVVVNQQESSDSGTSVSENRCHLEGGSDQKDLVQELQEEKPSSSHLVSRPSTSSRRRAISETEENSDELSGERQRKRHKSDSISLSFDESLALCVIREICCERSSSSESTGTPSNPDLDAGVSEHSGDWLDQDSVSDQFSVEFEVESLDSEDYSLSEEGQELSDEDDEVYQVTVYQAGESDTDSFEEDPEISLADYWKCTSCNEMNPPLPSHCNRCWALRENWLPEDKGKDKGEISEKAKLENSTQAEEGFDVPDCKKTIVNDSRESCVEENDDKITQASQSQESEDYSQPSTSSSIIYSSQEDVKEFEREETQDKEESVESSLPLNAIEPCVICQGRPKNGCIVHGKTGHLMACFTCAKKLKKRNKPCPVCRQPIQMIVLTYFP

c-cbl = c-cbl (Homo sapiens, UniProt P22681); experiment: Selectivity (% A in 1 μM), ubiquitin ligase activity of c-cbl; type: biochemical; conditions: % activity at 1 μM compound; control is related to 100% activity; HTS protocol
E2 protein = type: biochemical; conditions: % activity at 1 μM compound; control is related to 100% activity; HTS protocol
[1] = % activity at 1 μM compound, control is related to 100% activity, HTS protocol

| Structure (SMILES) | IC50 (POSH) | activity at 3 µM (HIV-1) | remaining activity at 1 µM (Hmdm2) | remaining activity at 1 µM (c-cbl) | Selectivity (% A* in 1 μM) E2 (E2 protein) | remaining activity at 1 µM (Hmdm2; [1]) |
| --- | --- | --- | --- | --- | --- | --- |
| O=C1NC(=O)C(=Cc2ccc(-c3cc(Cl)ccc3Cl)o2)C(=O)N1 [Compound 1] | 0.2 µM | 46% | 105% | – | – | – |
| C=CCN1C(=O)NC(=O)/C(=C\c2ccccc2)C1=O [Compound 2] | 0.7 µM | 66% | 108% | – | – | – |
| COc1ccc(N2C(=O)NC(=O)/C(=C\C=C\c3ccccc3)C2=O)cc1 [Compound 8] | 0.5 µM | 67% | 78% | – | – | – |
| CCCCCCOc1ccc(C=C2C(=O)NC(=S)NC2=O)cc1 [Compound 15] | 0.5 µM | 52% | 90% | – | – | – |
| O=C1C=CC(=O)N1c1ccccc1Cl [Compound 18] | 0.7 µM | 41% | 101% | – | – | – |
| O=C1C=CC(=O)N1c1ccc(Cl)cc1 [Compound 19] | 0.7 µM | 52% | 100% | – | – | – |
| O=C1C=CC(=O)N1c1ccc(OC(F)(F)C(F)F)c(N2C(=O)C=CC2=O)c1 [Compound 20] | 0.9 µM | 60% | 132% | – | – | – |
| O=C1S/C(=C/c2ccc(-c3ccc([N+](=O)[O-])cc3Cl)o2)C(=O)N1c1ccccc1 [Compound 27] | 0.7 µM | 48% | – | – | – | – |
| O=C(O)c1ccc(-c2ccc(/C=c3\sc4nc5ccccc5n4c3=O)o2)cc1 [Compound 28] | 0.7 µM | 54% | 90% | – | – | – |
| N=C1NC(=O)/C(=C\c2ccc(-c3ccc(I)cc3)o2)S1 [Compound 29] | 0.7 µM | 63% | 104% | – | – | – |
| O=c1/c(=C/c2ccc(N3CCOCC3)cc2)sc2nc3ccccc3n12 [Compound 32] | 0.5 µM | 67% | 141% | – | – | – |
| S=C(c1ccc(-c2cc(Cl)ccc2Cl)o1)N1CCCCC1 [Compound 35] | 0.5 µM | 56% | 101% | – | – | – |
| O=C1C(=Cc2ccc(-c3ccc(Br)cc3)o2)C(=O)c2ccccc21 [Compound 38] | 0.4 µM | 38% | 111% | – | – | – |
| CN(C)c1ccc(/C=C2\C(=O)N(c3ccc([N+](=O)[O-])cc3)N=C2N2CCOCC2)cc1 [Compound 42] | 5 µM | 51% | 111% | – | – | – |
| Cc1ccc2nsnc2c1/N=C/c1c(O)ccc2ccccc12 [Compound 53] | 0.5 µM | 64% | 125% | – | – | – |
| Oc1c(Br)cc(Cl)cc1/C=N/c1ccccn1 [Compound 64] | 0.9 µM | – | – | 118% | 117% | 115% |

| Structure (SMILES) | IC50 (POSH) | activity at 3 µM (HIV-1) | remaining activity at 1 µM (Hmdm2) | remaining activity at 1 µM (c-cbl) | Selectivity (% A* in 1 μM) E2 (E2 protein) | remaining activity at 1 µM (Hmdm2; [1]) |
| --- | --- | --- | --- | --- | --- | --- |
| Cc1cc(C)c(O)c(/N=C/c2c(O)ccc3ccccc23)c1 [Compound 65] | 1 µM | – | – | 101% | 65% | 98% |
| Oc1ccc2ccccc2c1/C=N/c1ncc(Br)cc1Br [Compound 66] | 0.9 µM | – | – | 107% | 117% | 120% |
| O=[N+]([O-])c1ccc2c(c1)Cc1cc(/N=C/c3ccc(Br)cc3)ccc1-2 [Compound 67] | 1 µM | – | – | 92% | 98% | 104% |
| CCOC(=O)c1c(/N=C/c2cc(Br)ccc2O)sc2c1CCCC2 [Compound 68] | 1 µM | – | – | 91% | 57% | 110% |
| Oc1ccc(/N=C/c2cccs2)cc1-c1nc2ccccc2s1 [Compound 71] | 0.8 µM | – | – | 84% | 86% | 78% |
| Cc1ccc2nc(-c3ccc(/N=C/c4ccc([N+](=O)[O-])s4)cc3)sc2c1 [Compound 72] | 0.8 µM | – | – | 95% | 77% | 124% |
| Cc1ccc(/C=N/c2ccc(C(N)=O)cc2)o1 [Compound 73] | 1.5 µM | – | – | 90% | 64% | 96% |
| Cc1ccc(/C=N/c2ccc(Cl)cc2)o1 [Compound 74] | 1 µM | – | – | 110% | 96% | 107% |
| CC(=O)Nc1ccc(-c2cc3ccccn3c2)cc1 [Compound 78] | 0.9 µM | – | – | 151% | 43% | 93% |
| O=C(C(Cl)Cl)N1CCN(c2ccc([N+](=O)[O-])cc2)CC1 [Compound 79] | 0.9 µM | – | – | 89% | 55% | 94% |
| O=[N+]([O-])c1ccc(Cl)cc1CN1CCN(CCO)CC1 [Compound 82] | 0.3 µM | – | – | 77% | 47% | 120% |
| Cc1cc(I)ccc1NCn1nnc2ccccc21 [Compound 105] | 0.8 µM | – | – | 117% | 93% | 102% |
| COc1ccc(CNc2cccc(N(C)C)c2)cc1 [Compound 106] | 0.9 µM | – | – | 112% | 88% | 80% |
| Cc1cc(/N=C/c2c(O)ccc3ccccc23)no1 [Compound 111] | 1 µM | – | – | 98% | 49% | 72% |
| Oc1c(Br)cc(Br)cc1/C=N/c1cccc2nsnc12 [Compound 112] | 0.7 µM | – | – | 117% | 84% | 113% |
| COc1ccc(/C=C/C(=O)C2C(=O)CCC2=O)cc1OC [Compound 113] | 0.4 µM | – | – | 93% | 66% | 101% |
